Drawing on patent US12006332B2, “Aminopyrimidine derivatives as phosphatidylinositol phosphate kinase inhibitors” (HiberCell, Inc., priority 2019, dated 2024), this text covers IC50 and EC50 for twelve compounds.

The target in one test is T1, PIP4K2 B (Homo sapiens, UniProt P78356).
T1 construct: made in house; host or cells: E. coli
T1 sequence (P78356 1-416): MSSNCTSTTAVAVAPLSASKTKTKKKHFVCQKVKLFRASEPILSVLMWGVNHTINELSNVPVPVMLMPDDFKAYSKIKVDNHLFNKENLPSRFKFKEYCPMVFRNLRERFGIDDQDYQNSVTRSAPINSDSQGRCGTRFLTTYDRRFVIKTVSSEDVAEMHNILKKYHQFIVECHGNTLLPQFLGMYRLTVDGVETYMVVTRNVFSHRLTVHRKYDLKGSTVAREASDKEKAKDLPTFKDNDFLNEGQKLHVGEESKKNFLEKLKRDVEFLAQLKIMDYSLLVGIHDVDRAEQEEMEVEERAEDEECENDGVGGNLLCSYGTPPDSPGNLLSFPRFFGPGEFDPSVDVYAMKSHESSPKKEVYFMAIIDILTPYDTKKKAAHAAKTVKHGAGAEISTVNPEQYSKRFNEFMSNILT
The test is described as follows: Kinase Assay-PIP4K2 B (Transcreener FI). It counts as biochemical. The source says:
GST tagged PIP4KtypeIIA and B enzymes were overexpressed in E. Coli and purified to >80% homogeneity. Phosphatidyl inositol-5-phosphate (PI5P, Cat. #850152, Avanti Polar Lipids Inc.) was used as the lipid substrate and phosphatidyl ethanolamine (DOPE 18:1, Cat. #850725, Avanti Polar Lipids Inc.) was used as the carrier lipid for assays. Ultrapure ATP and GTP was purchased from Bellbrooke Labs. ADP Glo reagents were obtained from Promega. Transcreener FI reagent was obtained from Bellbrooke labs.
• 1. HEPES buffer mix: 200 mM HEPES pH 7.4, 50 mM MgCl2, 0.05% v/v triton X 100 • 2. HNE buffer: 20 mM HEPES, pH 7.4, 100 mM NaCl, 0.5 mM EGTA • 3. H:E buffer: 30 mM HEPES, pH 7.4, 1 mM EGTA
GST-tagged PIP4KtypeIIB (3.4 μl, 2.77 mg/mL) was diluted to 5 mL using HNE buffer to yield 5× enzyme stock (25 nM)
Lipid Preparation: In a 10 mL pyrex glass vial, […] were suspended in 2.5 mL of HEPES buffer mix and 2.5 mL of H:E buffer. The contents were mixed and sonicated for 3 min to yield a translucent lipid stock.
Compound Preparation: Compounds were stored as 5 mM stocks in neat DMSO as room temperature in glass vials. 5 mM stocks were diluted to 2 mM and then serially diluted (3×) in neat DMSO in 96 well polypropylene plates. From the serially diluted stocks, 3 μL was delivered into 250 μL of 25% DMSO (in water) to generate 5× compound stocks. Typically, the highest compound conc. was 24 μM.
The assay volume was kept at 25 μL. To each well of the reaction plate, 10 μL of lipid stock (1:1 ratio PI5P:DOPE) was delivered. This was followed by the addition of 5 μL of compound in 25% DMSO. Then, to each well, 5 μL of 25 nM (5×) typeIIB enzyme was delivered. The contents were mixed well and incubated for 1 h at 27° C. After 1 h, reaction was initiated by adding 5 μL of 500 μM GTP and the contents were mixed well with a multi-channel pipetteman. The final concentration of the reagents are as follows: 50 mM HEPES, pH 7.3, 10 mM MgCl2, 20 mM NaCl, 0.01% v/v triton-X100, 5% DMSO, 100 μM GTP, 80 μM (2 μg) PI5P, 2 μg DOPE, and 5 nM PIP4KIIB Typically, the highest conc. of compounds was 4.8 μM and the lowest conc. was 0.
After 2 h, the reaction was quenched by adding 25 μL of transcreener FI reagent. The contents were incubated at rt for 1 h and the Fluorescence (Ex: 584 Em: 623) was read using Molecular Devices Paradigm plate reader. […] The blanks were averaged and subtracted from all other wells. Using a calibration curve, RFU was converted to μM GDP (product). IC50 was calculated by plotting the residual activity (expressed as % No inhibitor control) vs. log [Inh. conc.].

The test system of another test is MOLM-16. The test is described as follows: MOLM-16 EC50 assay. It is filed as cell-based. Particulars: MOLM16.
In the next test the target is T2, PIP4K2A (Homo sapiens, UniProt P48426).
T2 construct: made in house; host or cells: E. coli
T2 sequence (P48426 1-406): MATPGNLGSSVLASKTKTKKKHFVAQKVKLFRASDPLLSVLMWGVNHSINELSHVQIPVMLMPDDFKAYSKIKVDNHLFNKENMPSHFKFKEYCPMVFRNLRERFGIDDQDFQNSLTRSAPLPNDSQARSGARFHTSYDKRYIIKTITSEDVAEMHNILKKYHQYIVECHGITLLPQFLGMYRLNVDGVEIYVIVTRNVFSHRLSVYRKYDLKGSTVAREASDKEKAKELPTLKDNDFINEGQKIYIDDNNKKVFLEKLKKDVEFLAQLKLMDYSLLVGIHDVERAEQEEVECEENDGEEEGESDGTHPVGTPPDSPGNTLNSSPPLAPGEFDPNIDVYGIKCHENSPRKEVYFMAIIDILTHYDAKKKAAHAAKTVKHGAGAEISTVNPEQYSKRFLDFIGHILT
Description: Kinase Assay-PIP4K2 A (ADP-Glo). It counts as biochemical. Here is the method: Dilution series of the compounds were prepared in DMSO at 100 times the final assay concentration (n1=n0/3 in 10 points). The compounds were further diluted to three times the assay concentration in assay buffer (20 mM MOPS pH 7.2, 25 mM magnesium chloride, 0.005% Tween 20). 6 μL of the diluted compounds were added to a 384 well assay plate followed by 9 μL of a mix consisting of 4 nM PIP4K2A (full length protein, SignalChem) and 100 μM PI(5)P diC8 (Tebu-Bio). Enzyme and compounds were pre-incubated at room temperature for 15 minutes.
Then 3 μL of a solution containing 60 μM ATP (Promega) in assay buffer was added to the wells containing compound and enzyme and mixing was performed by pipetting several times. The reaction was incubated at room temperature for 1 h. Then 18 μL of ADP-Glo™ Reagent (Promega) was added to stop the kinase reaction and deplete the unconsumed ATP, mixing was performed by pipetting several times. The plate was incubated at room temperature for 40 minutes before addition of 36 μL of Kinase Detection Reagent (Promega) to convert ADP to ATP and introduce luciferase and luciferin to detect ATP. The reaction was incubated at room temperature for 40 minutes before the luminescence was measured in a in a Victor 3V 1420 multilabel counter (Perkin Elmer).
Percent inhibition of the compounds as compared to dimethyl sulfoxide treated control samples was calculated. Compound concentration versus percent inhibition were fitted to generate IC50 values. […]
For orientation: ADP-Glo first removes unused ATP, then detects ADP through luciferase.

As a reminder, the IC50 is the concentration needed to halve the response being measured. A low value points to greater potency. The term EC50 denotes the concentration needed to bring the measured effect to its halfway point. For the compound `CN(c1nc(Nc2cnc3c(c2)N2C(=O)CC[C@H]2CO3)ncc1-c1ccc(N2CCCC2=O)cc1)[C@@H]1CCOC1` [Compound 7, (6S)-12-[(4-{methyl[(3R)-oxolan-3-yl]amino}-5-[4-(2-oxopyrrolidin-1-yl)phenyl]pyrimidin-2-yl)amino]-8-oxa-2,10-diazatricyclo[7.4.0.0^2,6]trideca-1(13),9,11-trien-3-one], the IC50 against PIP4K2 B and at PIP4K2A was 1 to 10 nM in each case. In addition, the EC50 in the test with MOLM-16 was above 1000 nM.
For `C=C(C)c1cc(Nc2cnc3c(c2)N2C(=O)CC[C@H]2CO3)ncc1-c1ccc(-c2nncn2C)cc1` [Compound 8, (6S)-12-({5-[4-(4-methyl-4H-1,2,4-triazol-3-yl)phenyl]-4-(prop-1-en-2-yl)pyridin-2-yl}amino)-8-oxa-2,10-diazatricyclo[7.4.0.0^2,6]trideca-1(13),9,11-trien-3-one], the IC50 at PIP4K2 B and against PIP4K2A was 1 to 10 nM throughout. In the test with MOLM-16, this compound yielded an EC50 above 1000 nM.
Regarding `CC1(C#N)CN(c2nc(Nc3cnc4c(c3)N3C(=O)CC[C@H]3CO4)ncc2-c2ccc(N3CCCC3=O)cc2)C1` [Compound 10, 3-methyl-1-(2-{[(6S)-3-oxo-8-oxa-2,10-diazatricyclo[7.4.0.0^2,6]trideca-1(13),9,11-trien-12-yl]amino}-5-[4-(2-oxopyrrolidin-1-yl)phenyl]pyrimidin-4-yl)azetidine-3-carbonitrile], the half-maximal inhibitory concentration (IC50) against PIP4K2 B and against PIP4K2A was 1 to 10 nM in each case. In addition, in the test on MOLM-16, the EC50 is 100 to 1000 nM.
Regarding `CN(c1nc(Nc2cnc3c(c2)OCCO3)ncc1-c1ccc(N2CCCC2=O)cc1)[C@H]1C[C@H](O)C1` [Compound 12, 1-{4-[2-({2H,3H-[1,4]dioxino[2,3-b]pyridin-7-yl}amino)-4-{methyl[(1r,3r)-3-hydroxycyclobutyl]amino}pyrimidin-5-yl]phenyl}pyrrolidin-2-one], the IC50 against PIP4K2 B and against PIP4K2A was 1 to 10 nM throughout. The EC50 with MOLM-16 lay within 100 to 1000 nM.
For the compound `Cc1cnnn1-c1ccc(-c2cnc(Nc3cnc4c(c3)N(C(=O)OCCN(C)C)CCO4)nc2)cc1` [Compound 13, 2-(dimethylamino)ethyl 7-({5-[4-(5-methyl-1H-1,2,3-triazol-1-yl)phenyl]pyrimidin-2-yl}amino)-1H,2H,3H-pyrido[2,3-b][1,4]oxazine-1-carboxylate], the IC50 against PIP4K2 B and on PIP4K2A was 1 to 10 nM throughout. The compound also registered a concentration giving a half-maximal response (EC50) with MOLM-16 of 100 to 1000 nM.
Take `O=C1CCCN1c1ccc(-c2cnc(Nc3cnc4c(c3)N3C(=O)CC[C@H]3CO4)nc2C(F)(F)F)cc1` [Compound 14, (6S)-12-({5-[4-(2-oxopyrrolidin-1-yl)phenyl]-4-(trifluoromethyl)pyrimidin-2-yl}amino)-8-oxa-2,10-diazatricyclo[7.4.0.0^2,6]trideca-1(9),10,12-trien-3-one]: the IC50 against PIP4K2 B and against PIP4K2A was 1 to 10 nM in each case. This compound also registered an EC50 in the test with MOLM-16 above 1000 nM.
`COc1nc(Nc2cnc3c(c2)N(C(=O)OCCN(C)C)CCO3)ncc1-c1ccc(C(=O)N(C)C)cc1` [Compound 15, 2-(dimethylamino)ethyl 7-({5-[4-(dimethylcarbamoyl)phenyl]-4-methoxypyrimidin-2-yl}amino)-1H,2H,3H-pyrido[2,3-b][1,4]oxazine-1-carboxylate]: the half-inhibitory concentration (IC50) against PIP4K2 B and against PIP4K2A was 1 to 10 nM throughout. This compound also gave an EC50 in the test on MOLM-16 of 100 to 1000 nM.
`COc1nc(Nc2cncc(N3CCC(N(C)C)CC3)c2)ncc1-c1ccc(N2CCCC2=O)cc1` [Compound 16, 1-{4-[2-({5-[4-(dimethylamino)piperidin-1-yl]pyridin-3-yl}amino)-4-methoxypyrimidin-5-yl]phenyl}pyrrolidin-2-one]: the IC50 against PIP4K2 B and on PIP4K2A was 10 to 100 nM throughout. The compound further yielded an EC50 with MOLM-16 of 10 to 100 nM.
For `CN(C)C(=O)c1ccc(-c2cnc(Nc3cnc4c(c3)OCCO4)nc2N(C)[C@H]2C[C@@H](O)C2)cc1` [Compound 18, 4-[2-({2H,3H-[1,4]dioxino[2,3-b]pyridin-7-yl}amino)-4-{methyl[(1s,3s)-3-hydroxycyclobutyl]amino}pyrimidin-5-yl]-N,N-dimethylbenzamide], the values for the IC50 against PIP4K2 B and on PIP4K2A were 100 to 1000 nM and 10 to 100 nM, respectively. This compound also showed an EC50 with MOLM-16 above 1000 nM.
For `COc1nc(Nc2cnc3c(c2)N(C(=O)CN(C)C)CCO3)ncc1-c1ccc(N2CCCC2=O)cc1` [Compound 19, 1-{4-[2-({1-[2-(dimethylamino)acetyl]-1H,2H,3H-pyrido[2,3-b][1,4]oxazin-7-yl}amino)-4-methoxypyrimidin-5-yl]phenyl}pyrrolidin-2-one], in that order: 10 to 100 nM, 10 to 100 nM and 10 to 100 nM.
For `Cc1cnnn1-c1ccc(-c2cnc(Nc3cnc4c(c3)N(C(=O)CN(C)C)CCO4)nc2)cc1` [Compound 20, 2-(dimethylamino)-1-[7-({5-[4-(5-methyl-1H-1,2,3-triazol-1-yl)phenyl]pyrimidin-2-yl}amino)-1H,2H,3H-pyrido[2,3-b][1,4]oxazin-1-yl]ethan-1-one], the IC50 on PIP4K2 B and against PIP4K2A was 10 to 100 nM throughout. The compound further registered an EC50 in the test with MOLM-16 of 100 to 1000 nM.
Turning to `O=C1CCCN1c1ccc(-c2cnc(Nc3cnc4c(c3)N3C(=O)CC[C@H]3CO4)nc2CC2(O)COC2)cc1F` [Compound 21, (6S)-12-({5-[3-fluoro-4-(2-oxopyrrolidin-1-yl)phenyl]-4-[(3-hydroxyoxetan-3-yl)methyl]pyrimidin-2-yl}amino)-8-oxa-2,10-diazatricyclo[7.4.0.0^2,6]trideca-1(9),10,12-trien-3-one], the IC50 against PIP4K2 B and against PIP4K2A was 10 to 100 nM in each case. Besides, in the test on MOLM-16, the EC50 is above 1000 nM.
